# Data as given in patent publication US9260439B2, “Dihydropyrrolopyrimidine derivatives” (PFIZER INC., priority 2014, dated 2016).
# Columns and labels:
# [1] = target: full-length PI3Kα (full-length p110α/p85α) (Homo sapiens (Human), UniProt P42336); assay: PI3KA_FL fluorescence polarization kinase assay (Ki); type: biochemical; settings: 41 μM ATP
# Excerpt: Enzyme Production for Biochemical Assays: 1) PI3Kα Complex (Full Length p110α and p85α)(“PI3KA_FL”)
# Genes encoding for full length p110α and p85α subunits of PI3Kα complex were subcloned from existing constructs into pFASTBAC Dual vector (Life Technologies, Carlsbad, Calif.) using standard cloning procedures. Gene encoding p110α subunit was subcloned into polyhedrine promoter while gene encoding p85α subunit was subcloned into p10 promoter. Additionally, sequence encoding for histidine tag and Tobacco Etch Virus (“TEV”) cleavage site preceded p110α ORF (Open Reading Frame). Recombinant baculovirus was generated using Bac-to-Bac protocol (Life Technologies, Carlsbad, Calif.) and large scale expression was conducted in Sf21 (Life Technologies, Carlsbad, Calif.) cells at a multiplicity of infection (“MOI”)=1 for 72 hours. Cells were lyzed in 50 mM Tris pH 8.0, 250 mM NaCl, 5% glycerol, 0.25 mM TCEP, and 20 mM imidazole. The PI3Kα complex was purified from clarified supernatant using Immobilized Metalo Affinity Chromatography (“IMAC”). The protein was eluted from the column using 50 mM Tris pH 8.0, 200 mM NaCl, 5% glycerol, 0.25 mM TCEP, and 200 mM imidazole, and further desalted into 50 mM Tris pH 8.0, 20 mM NaCl, and 0.25 mM TCEP prior to loading on MonoQ sepharose (GE Healthcare, Piscataway, N.J.). PI3Kα complex was eluted from MonoQ sepharose over 20 column volumes using 0-30% gradient of buffer B (50 mM Tris pH 8.0, 1 M NaCl, and 0.25 mM TCEP). The peak fractions were pulled together and loaded on Superdex 200 26/60 SEC column equilibrated in 50 mM Tris pH 8.0, 200 mM NaCl, and 0.5 mM TCEP. […] Purity and integrity of the complex was confirmed using LCMS, analytical SEC and SDS-PAGE (sodium dodecyl sulfate polyacrylamide gel electrophoresis) analysis.
# The biochemical assays of kinase activity of full-length PI3Kα (full-length p110α/p85a) or truncated PI3Kα (p110α/iSH2 p85a) were conducted using a fluorescence polarization format similar to the procedure of Yuan J., et al., (2011) “PF-04691502, a Potent and Selective Oral Inhibitor of PI3K and mTOR Kinases with Antitumor Activity”, Mol Cancer Ther. 10, 2189-2199. The enzymatic reactions were conducted in 50 μL volumes in 96-well plates. The reactions contained human recombinant PI3Kα (2 nM full-length p110α/p85α or 0.5 nM p110α/iSH2 p85) and 30 μM phosphatidylinositol 4,5-bisphosphate (“PIP2”) (Cayman Chemical Company, Ann Arbor, Mich.) and were sonicated for 1 minute prior to adding PI3Kα enzyme (PI3KA_Act or PI3KA_FL), DMSO or test compound (12-point 3-fold serial dilution, 3 μM top dose, 2° A) DMSO final concentration), 5 mM MgCl2, 50 mM HEPES pH 7.4, 150 mM NaCl, 1 mM DTT ((2S,3S)-1,4-bis(sulfanyl)butane-2,3-diol), and 0.05% 3-[(3-cholamidopropyl)dimethylammonio]-1-propanesulfonate (“CHAPS”). […] The reactions were incubated for 30 min at room temperature, stopped with EDTA pH 8 (10 mM final concentration). In a detection plate, 15 μL of detector/probe mixture, containing 480 nM GST-Grp1 PH domain protein (University of Dundee, Dundee, UK) and 12 nM carboxytetramethylrhodamine (“TAMRA”)-tagged fluorescent phosphatidylinositol (3,4,5)-triphosphate (“PIP3”) (Echelon Biosciences, Inc., Salt Lake City, Utah) in assay buffer, was mixed with 15 μL of kinase reaction mixture. The plate was shaken for 30 minutes and fluorescence polarization values were measured on an LJL Analyst HT plate reader (Molecular Devices, Sunnyvale, Calif.). […] The inhibition constants (Ki) were calculated by fitting fluorescence polarization values, corresponding to initial reaction rates, to the Morrison equation (Morrison, J. F. (1969) Kinetics of the reversible inhibition of enzyme catalysed reactions by tight-binding inhibitors. Biochim. Biophys. Acta 185, 269-286) for tight-binding competitive inhibitors using non-linear regression method (GraphPad Prism, GraphPad Software, San Diego, Calif.).
# [2] = target: truncated PI3Kα (p110α/iSH2 p85α) (Homo sapiens (Human), UniProt P42336); assay: PI3KA_Act fluorescence polarization kinase assay (Ki); type: biochemical; settings: 1 mM ATP
# truncated PI3Kα (p110α/iSH2 p85α), sequence (P42336 whole entry, the tested form may be a part): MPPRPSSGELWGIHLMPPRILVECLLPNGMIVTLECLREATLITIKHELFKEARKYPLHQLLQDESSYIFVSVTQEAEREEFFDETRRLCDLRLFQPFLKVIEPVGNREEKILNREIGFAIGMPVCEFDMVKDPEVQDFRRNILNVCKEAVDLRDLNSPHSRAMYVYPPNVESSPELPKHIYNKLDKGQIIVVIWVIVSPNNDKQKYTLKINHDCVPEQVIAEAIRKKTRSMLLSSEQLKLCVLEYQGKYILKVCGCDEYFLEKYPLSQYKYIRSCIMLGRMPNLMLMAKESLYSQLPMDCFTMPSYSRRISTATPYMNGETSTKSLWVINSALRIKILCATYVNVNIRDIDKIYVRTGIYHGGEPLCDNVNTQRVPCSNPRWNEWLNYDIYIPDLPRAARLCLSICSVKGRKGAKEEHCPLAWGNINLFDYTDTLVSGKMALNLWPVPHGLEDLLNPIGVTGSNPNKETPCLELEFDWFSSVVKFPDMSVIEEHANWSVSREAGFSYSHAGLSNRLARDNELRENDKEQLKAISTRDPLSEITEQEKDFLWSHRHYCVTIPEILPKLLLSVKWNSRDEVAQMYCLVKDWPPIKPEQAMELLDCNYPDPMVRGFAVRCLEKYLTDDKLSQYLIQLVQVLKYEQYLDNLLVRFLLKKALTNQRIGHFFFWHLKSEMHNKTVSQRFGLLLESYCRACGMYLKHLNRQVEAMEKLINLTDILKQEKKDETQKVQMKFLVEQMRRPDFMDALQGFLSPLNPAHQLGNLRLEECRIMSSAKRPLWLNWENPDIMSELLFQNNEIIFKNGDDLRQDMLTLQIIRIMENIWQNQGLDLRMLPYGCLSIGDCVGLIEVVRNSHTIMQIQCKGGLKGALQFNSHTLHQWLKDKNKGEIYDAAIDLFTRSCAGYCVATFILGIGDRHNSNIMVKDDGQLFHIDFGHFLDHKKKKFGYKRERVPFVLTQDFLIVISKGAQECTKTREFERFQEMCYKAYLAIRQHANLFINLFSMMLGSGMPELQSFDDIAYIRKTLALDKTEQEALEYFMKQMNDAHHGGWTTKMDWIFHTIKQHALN
# How it was run: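 p110α/iSH2 p85α (0.5 nM) was reacted with 30 μM sonicated PIP2 in 50 mM HEPES pH 7.4, 150 mM NaCl, 5 mM MgCl2, 1 mM DTT and 0.05% CHAPS for 30 min at room temperature, then stopped with EDTA. PIP3 was detected by fluorescence polarization (GST-Grp1 PH domain/TAMRA-PIP3), and Ki came from a Morrison tight-binding fit.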
# full-length PI3Kα (full-length p110α/p85α), sequence (P42336 whole entry): as the sequence (P42336 whole entry, the tested form may be a part) above
# full-length PI3Kα (full-length p110α/p85α), sequence (P27986 whole entry partner): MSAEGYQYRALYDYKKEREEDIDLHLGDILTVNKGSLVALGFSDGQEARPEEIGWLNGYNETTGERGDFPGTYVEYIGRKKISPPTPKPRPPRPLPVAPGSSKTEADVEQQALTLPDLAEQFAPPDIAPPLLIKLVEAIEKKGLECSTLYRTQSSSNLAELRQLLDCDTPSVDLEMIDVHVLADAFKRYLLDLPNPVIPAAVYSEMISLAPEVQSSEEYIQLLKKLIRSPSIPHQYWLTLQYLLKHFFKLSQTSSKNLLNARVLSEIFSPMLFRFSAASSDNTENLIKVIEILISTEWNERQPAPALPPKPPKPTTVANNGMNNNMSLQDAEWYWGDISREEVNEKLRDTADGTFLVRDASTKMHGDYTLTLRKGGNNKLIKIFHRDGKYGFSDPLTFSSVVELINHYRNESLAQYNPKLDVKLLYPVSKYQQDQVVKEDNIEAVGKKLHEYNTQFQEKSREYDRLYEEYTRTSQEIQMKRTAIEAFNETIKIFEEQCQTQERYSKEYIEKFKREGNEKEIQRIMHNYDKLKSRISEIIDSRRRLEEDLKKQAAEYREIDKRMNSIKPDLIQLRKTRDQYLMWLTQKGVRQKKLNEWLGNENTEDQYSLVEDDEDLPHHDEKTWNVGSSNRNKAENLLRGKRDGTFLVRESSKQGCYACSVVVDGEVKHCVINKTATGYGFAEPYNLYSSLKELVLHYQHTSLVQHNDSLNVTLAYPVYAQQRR
SMILES,PI3KA_FL Ki [1] [pM],PI3KA_Act Ki [2] [pM],PI3KA_FL Ki (nM) [1]
C[C@H]1COCCN1c1nc(-c2cnc(N)nc2)c2c(n1)N([C@H]1CCN(C(=O)OC(C)(C)C)C1)CC2 [Example 76],359,182,
CNS(=O)(=O)N1CC[C@@H](N2CCc3c(-c4cnc(N)nc4)nc(N4CCOC[C@@H]4C)nc32)C1 [Example 92],475,376,
CCOC(=O)N1CC[C@H](N2CCc3c(-c4cnc(N)nc4)nc(N4CCOC[C@@H]4C)nc32)C1 [Example 125],,87,≦0.229 nM
CC(C)S(=O)(=O)N1CC[C@@H](N2CCc3c(-c4cnc(N)nc4)nc(N4CCOCC4)nc32)C1 [Example 111],,151,≦0.229 nM
CNS(=O)(=O)N(C)[C@H]1C[C@H](N2CCc3c(-c4cnc(N)nc4)nc(N4CCOCC4)nc32)C1 [Example 46],412,187,
CC(=O)N1CC(OC(=O)N2CC[C@@H](N3CCc4c(-c5cnc(N)nc5)nc(N5CCOC[C@@H]5C)nc43)C2)C1 [Example 136],,99,≦0.229 nM
C[C@H]1COCCN1c1nc(-c2cnc(N)nc2)c2c(n1)N([C@H]1CCN(S(=O)(=O)C3CC3)C1)CC2 [Example 121],,56,≦0.229 nM
CNS(=O)(=O)N1CC[C@H](N2CCc3c(-c4cnc(N)nc4)nc(N4CCOCC4)nc32)C1 [Example 38],228,124,
"CC(=O)N1C[C@@H](F)[C@@H](N2CCc3c(-c4cnc(N)nc4)nc(N4CCOCC4)nc32)C1 (single isomer, unassigned) [Example 74]",5079,2441,
"Nc1ncc(-c2nc(N3CCOCC3)nc3c2CCN3[C@@H]2CCC(F)(F)C2)cn1 (single isomer, unassigned) [Example 35]",393,311,
CN(C)S(=O)(=O)N1CC[C@H](N2CCc3c(-c4cnc(N)nc4)nc(N4CCOCC4)nc32)C1 [Example 82],240,100,
CNS(=O)(=O)N1CC(N2CCc3c(-c4cnc(N)nc4)nc(N4CCOC[C@@H]4C)nc32)C1 [Example 122],,64,≦0.229 nM
CCS(=O)(=O)N1CC(N2CCc3c(-c4cnc(N)nc4)nc(N4CCOC[C@@H]4C)nc32)C1 [Example 115],,105,≦0.229 nM
CNS(=O)(=O)N1C[C@@H](N2CCc3c(-c4cnc(N)nc4)nc(N4CCOC[C@@H]4C)nc32)[C@H](OC)C1 [Example 117],256,179,
Nc1ncc(-c2nc(N3CCOCC3)nc3c2CCN3C2CN(S(=O)(=O)C3CC3)C2)cn1 [Example 109],,118,≦0.229 nM
CNS(=O)(=O)O[C@H]1C[C@@H](N2CCc3c(-c4cnc(N)nc4)nc(N4CCOCC4)nc32)C1 [Example 104],,79,≦0.229 nM
CNS(=O)(=O)O[C@H]1C[C@H](N2CCc3c(-c4cnc(N)nc4)nc(N4CCOCC4)nc32)C1 [Example 95],,78,≦0.229 nM
CS(=O)(=O)N1CC(N2CCc3c(-c4cnc(N)nc4)nc(N4CCOCC4)nc32)C1 [Example 73],350,303,

SMILES,PI3KA_FL Ki [1] [pM],PI3KA_Act Ki [2] [pM],PI3KA_FL Ki (nM) [1]
CC(=O)N[C@H]1C(C)(C)[C@@H](N2CCc3c(-c4cnc(N)nc4)nc(N4CCOCC4)nc32)C1(C)C [Example 42],7677,,
CC(=O)N1CC[C@H](N2CCc3c(-c4cnc(N)nc4)nc(N4CCOCC4)nc32)C1 [Example 12],1130,,
CC(=O)N1CC[C@H](N2CCc3c(-c4cnc(N)nc4)nc(N4CCOC[C@@H]4C)nc32)C1 [Example 96],2093,,
CC(C)(C)NC(=O)N1CC[C@@H](N2CCc3c(-c4cnc(N)nc4)nc(N4CCOCC4)nc32)C1 [Example 135],5159,,
Nc1ncc(-c2nc(N3CCOCC3)nc3c2CCN3[C@@H]2CCOC2)cn1 [Example 17],4273,,
CC(=O)N1C[C@@H](N2CCc3c(-c4cnc(N)nc4)nc(N4CCOCC4)nc32)[C@@H](C)C1 [Example 52],2799,,
Nc1ncc(-c2nc(N3CCOCC3)nc3c2CCN3[C@H]2C[C@H](C(N)=O)C2)cn1 [Example 53],774,,
C[C@H]1COCCN1c1nc(-c2cnc(N)nc2)c2c(n1)N([C@@H]1CCN(C(=O)NC(C)(C)C)C1)CC2 [Example 138],5547,,
Nc1ncc(-c2nc(N3CCOCC3)nc3c2CCN3C2CN(C=O)C2)cn1 [Example 62],888,,
CC(=O)N[C@H]1CC[C@@H]1N1CCc2c(-c3cnc(N)nc3)nc(N3CCOCC3)nc21 [Example 70],4601,,
CCS(=O)(=O)N1CC[C@@H](N2CCc3c(-c4cnc(N)nc4)nc(N4CCOCC4)nc32)C1 [Example 112],491,,
CNC(=O)N1CC[C@H](N2CCc3c(-c4cnc(N)nc4)nc(N4CCOCC4)nc32)C1 [Example 27],1025,,
Nc1ncc(-c2nc(N3CCOCC3)nc3c2CCN3C2CCC2)cn1 [Example 14],6843,,
CC(=O)N1C[C@H](C(F)F)[C@@H](N2CCc3c(-c4cnc(N)nc4)nc(N4CCOCC4)nc32)C1 [Example 71],8899,,
CC(=O)N(C)[C@H]1C[C@H](N2CCc3c(-c4cnc(N)nc4)nc(N4CCOCC4)nc32)C1 [Example 21],5393,,
CN(C)S(=O)(=O)N1CC(N2CCc3c(-c4cnc(N)nc4)nc(N4CCOCC4)nc32)C1 [Example 110],735,,
COCCOC(=O)N1CC[C@H](N2CCc3c(-c4cnc(N)nc4)nc(N4CCOC[C@@H]4C)nc32)C1 [Example 133],468,,
CC(=O)N1CCC[C@@H](N2CCc3c(-c4cnc(N)nc4)nc(N4CCOCC4)nc32)C1 [Example 55],3904,,
